Assay results: patent US11400058B2, “Intravenous formulations of coenzyme Q10 (CoQ10) and methods of use thereof” (Berg LLC, priority 2010, dated 2022)

Experiments:
Caspase 3 in HDFa cells = test: Western blot for Caspase 3 protein; format: cell-based; conditions: 24 hours
Procedure: For the oxygen consumption rate assay, the oxygen consumption rates in the cell lines was determined using the Seahorse apparatus. The caspase 3 activity was determined using a colorimetric method using a commercially available kit according to manufacturer's instructions. The increase in the expression of Caspase 3 as a measure of apoptosis was determined by western blotting analysis using an antibody specific for detection of Caspase 3 protein.
Caspase 3 levels were determined in various cell lines following treatment with the same two CoQ10 N formulations as used above (the first formulation included 4% CoQ10; 3% DMPC; and 93% water, and the second formulation included 4% CoQ10; 3% DMPC; 1.5% Poloxamer P188; and 91.5% water). Specifically, PC-3, HepG2, MCF-7, HDFa and MIAPACA2 cells were treated with the CoQ10 IV formulation and harvested after 24 hours of treatment. The whole cell pellets of these cells were used for Western Blots. Sample volumes equivalent to 10 μg of protein were prepared with Lamelli Loading Dye (LDS) and water and run on a 4-12% Bis-Tris Novel NuPAGE gel on two 10 lane gels (15 μL loaded per lane) as detailed below. […]

in vivo = conditions: Sprague Dawley, rat, iv
Procedure: In the second rat toxicity study, Charles River Study Number 20000328, CoQ10 was administered as short intravenous infusions at the rate of 1.0 mL/min three times a week for four weeks. For the toxicokinetic evaluation, three groups of nine male and nine females received 62.5, 125, and 250 mg/kg CoQ10 IV Formulation (Table 20). On Days 1 and 26, samples were collected from subgroups of three males and three females at 5 and 15 minutes, and at 1, 4, 24 and 48 hr post-dose.
4-Week Repeat-Dose Toxicology Study of CoQ10 IV Formulation In Rats: Four groups of young adult Sprague Dawley rats (n=10/sex/group) received the vehicle (PBS containing Poloxamer 188 and DMPC) or the test article at doses of 0, 62.5, 125 and 250 mg/kg by IV injection three times per week (Charles River Laboratories Study Number 20000328; Table 26). An additional 5 rats/sex were included in each group and were maintained after treatment for a 2-week recovery period. […] The vehicle was administered at the same dose volume as the high-dose group. Additionally, three groups of 9 animals/sex served as toxicokinetic (TK) animals and received the test article in the same manner as the main study groups. […] Blood samples for determination of the plasma concentrations of the test article were collected from cohorts of three TK animals per sex per dose group at 5, 15 and 60 minutes and at 4, 24 and 48 hours after dosing on Days 1 and 28 (after the last dose).

## COC1=C(OC)C(=O)C(C/C=C(\C)CC/C=C(\C)CC/C=C(\C)CC/C=C(\C)CC/C=C(\C)CC/C=C(\C)CC/C=C(\C)CC/C=C(\C)CC/C=C(\C)CCC=C(C)C)=C(C)C1=O [CoQ10, Coenzyme Q10]
Caspase 3 in HDFa cells
  intensity of Caspase 3 lower band: decreased
In vivo; female, 62.5 mg/kg
  AUC0-t: 2690 µg·h/mL
In vivo; female, 125 mg/kg
  AUC0-t: 5110 µg·h/mL
In vivo; female, 250 mg/kg
  AUC0-t: 15500 µg·h/mL
In vivo; male, 62.5 mg/kg
  AUC0-t: 3000 µg·h/mL
In vivo; male, 125 mg/kg
  AUC0-t: 6870 µg·h/mL
In vivo; male, 250 mg/kg
  AUC0-t: 16600 µg·h/mL
